Reference: patent publication US20180289692A1, “TLR MODULATORS AND METHODS OF USE” (CELGENE CORPORATION, priority 2015, published 2018)
Oligonucleotides are written 5' to 3', each unit as a sugar letter and its base; * is a phosphorothioate linkage, no mark a phosphodiester; rarer units and linkages stand in square brackets, end groups in braces. Plain capitals give the bases only. d = 2'-deoxy (DNA)

Key:
SMAD7 protein = SMAD7 protein levels in human pDCs by FACS; assay type: cell-based; details: 24 hrs or 48 h, any indicated concentration, no transfection
Experimental: PBMC from healthy donors were isolated from Buffy Coat blood (Blood Center of NY) by density-gradient centrifugation over Ficoll-Hypaque (Pharmacia Biotech). The cells were washed with PBS and re-suspended in RPMI-1640 Media with 10% inactivated fetal bovine serum, penicillin (100 U/ml) and streptomycin (100 μg/ml) and 2 mM L-glutamine (complete medium, Life Technologies). PBMC were treated with ODNs for indicated time periods at indicated concentrations, generally between 0.0001 μM and 10 μM, with CD40L plus anti-HisTag antibody, or with a vehicle control (endotoxin-free sterile water control). No transfection reagent was added with the ODNs.
SMAD7 protein levels were determined using standard FACS protocols. PBMCs were incubated on ice in the presence of Fc-Block (BD Pharmingen) for 20 minutes, washed, and incubated with antibodies specific for surface molecules or isotype-matched control mAbs. PECY-7-labeled anti-human CCR6 mAb, and PerCP-Cy5.5 labeled anti-human CD123 mAb were purchased from BD Biosciences. SMAD7 antibody was purchased from Biorbyt, Cambridge, UK. The stained cells were then subjected to FACS (FACSCanto, BD Biosciences) using the FACSDiva software. FACS analysis was performed using FlowJo software. Single, viable cells in the CCR6+CD123+ pDC gates were used for analysis of, e.g., SMAD7 protein levels.

[1] = tested on: canonical NF-κB promoter reporter; assay: Canonical NF-κB promoter reporter construct in RAW264.7 macrophage cells (FIG. 10); assay type: cell-based, mouse; details: 24 hrs
Experimental: Mouse RAW264.7 macrophage cells containing a reporter construct driven by a canonical NF-κB promoter were plated in 96-well plates at 50,000 cells/well. […] The supernatant was harvested and tested for optical density.

mouse macrophages = assay: TNFα and IL-10 production in mouse macrophages (Raw Blue cells), MagPix; assay type: cell-based; details: 24 hrs
Experimental: Mouse Raw Blue Reporter Cells (Invivogen) were plated in 96-well plates at 50,000 cells/well in DMEM Media supplemented with 10% FBS, 2 mM L-glutamine, 1% Pen/Strep, […] Normacin. […] The supernatant was harvested and tested for TNFα and IL-10 production using MagPix Multi-Plex technology.

TLR9 = biological target: T1, TLR9 (Homo sapiens, UniProt Q9NR96); assay: NF-κB reporter gene in recombinant TLR9-expressing HEK293 cells; assay type: cell-based
T1 construct: expressed in transfected cells; host or cells: TLR9 expressing HEK293 reporter cells with a human NF-κB reporter construct
T1 sequence (Q9NR96 26-1032): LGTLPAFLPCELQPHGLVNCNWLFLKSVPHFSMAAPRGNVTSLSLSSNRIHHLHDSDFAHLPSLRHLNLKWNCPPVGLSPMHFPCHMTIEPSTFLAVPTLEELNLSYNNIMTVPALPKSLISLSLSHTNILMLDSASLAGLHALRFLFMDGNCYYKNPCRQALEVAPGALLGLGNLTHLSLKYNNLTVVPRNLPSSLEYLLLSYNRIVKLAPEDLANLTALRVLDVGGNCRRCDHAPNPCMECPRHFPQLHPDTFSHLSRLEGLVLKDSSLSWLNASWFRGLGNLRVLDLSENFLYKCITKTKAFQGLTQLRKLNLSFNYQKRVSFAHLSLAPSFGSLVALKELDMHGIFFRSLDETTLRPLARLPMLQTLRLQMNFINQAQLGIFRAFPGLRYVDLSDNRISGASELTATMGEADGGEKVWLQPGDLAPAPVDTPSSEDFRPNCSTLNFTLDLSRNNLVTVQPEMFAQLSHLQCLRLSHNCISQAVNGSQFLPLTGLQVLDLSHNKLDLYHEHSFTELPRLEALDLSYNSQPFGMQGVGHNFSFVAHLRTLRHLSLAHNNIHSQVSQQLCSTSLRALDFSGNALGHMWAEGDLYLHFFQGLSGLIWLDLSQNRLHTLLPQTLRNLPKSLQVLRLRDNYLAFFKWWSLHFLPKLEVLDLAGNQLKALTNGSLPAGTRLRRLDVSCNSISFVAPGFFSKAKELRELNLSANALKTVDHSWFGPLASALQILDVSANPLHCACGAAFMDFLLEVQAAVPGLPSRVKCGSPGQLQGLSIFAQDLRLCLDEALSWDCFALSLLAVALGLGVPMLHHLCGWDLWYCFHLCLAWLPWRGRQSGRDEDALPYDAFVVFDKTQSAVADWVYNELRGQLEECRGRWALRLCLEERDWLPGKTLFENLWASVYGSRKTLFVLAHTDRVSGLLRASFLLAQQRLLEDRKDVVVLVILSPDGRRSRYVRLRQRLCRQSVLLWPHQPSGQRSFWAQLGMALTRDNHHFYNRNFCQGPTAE
Experimental: FIGS. 16A-B show results of experiments in which recombinant TLR-expressing HEK293 cells carrying an NF-κB reporter gene were incubated with COMPOUND(I), ODN150, ODN2006, or ODN7040 for 48 hours at the indicated concentrations.

human PBMCs = assay: Cytokine production by human PBMCs treated with ODNs, MagPix Multi-Plex; assay type: cell-based; design: key to IL-6, IL-12: (↑) indicates a weak but detectable activity; (↑↑) and (↑↑↑) indicate different levels of moderate activities; (↑↑) and (↑↑↑) indicate different levels of moderate activities; (↑↑↑↑) indicates a strong activity; (−) indicates no detectable activity; details: for IFN-γ / IL-1β / IL-6 / IL-10 / IL-12p40 / IP10 / TNF-α: human PBMC, 24 hrs
Experimental: PBMC from 3 donors were isolated from Buffy Coat (Blood Center of NY). The cells were washed with PBS and re-suspended in RPMI-1640 Media with 5% Human AB Serum, 1% Pen/Strep and 2 mM L-glutamine. The cells were then plated in 96-well plates at 250,000 cells/well. […] After 24 hrs, the supernatant was harvested and tested for cytokine production using MagPix Multi-Plex Technology. The following cytokines were tested: IL-6, IL-10, IL-12p40, IFN-α, IFN-γ, IP-10, IL-1β and TNF-α.

[2] = PBMC, relative strength, Table 6

In the case of “ODN150: 5′-G*G*A*ACAGTTCGTCCAT*G*G*C-3′, PO except * = PS; antisense to p65 of NF-kB mRNA; tested clinically for ulcerative colitis (DNA dG*dG*dA*dAdCdAdGdTdTdCdGdTdCdCdAdT*dG*dG*dC)”, the “effect on SMAD7 protein levels” value (SMAD7 protein) is reported as “do not affect”, the “activation of the NF-κB construct” value ([1]; 0.1-100 μM) is reported as “Moderate activation” and the “ODN concentration at which activation of the NF-κB construct was observed” value [1] is reported as 100 µM. The TNFα protein expression (mouse macrophages; FIG. 12, COMPOUND (I) up to 10 μM) was “induce”, the IL-10 protein expression (mouse macrophages; FIG. 13, COMPOUND (I) up to 10 μM) was “induce” and the “TLR pathway activation (NF-κB)” value (TLR9; Reporter Cell, relative strength, Table 6) was “↑ ↑”. For the same substance, the “NF-κB reporter gene activation” value (TLR9; TLR9-expressing HEK293 cells, 48 hours, FIGS. 16A-B) was “concentration-dependent NF-kB induction”, the “IL-6, IL-12” value (human PBMCs; [2]) was “↑” and the “TNFα, IFNγ” value (human PBMCs; [2]) was “—/↑”. The “IFNα secretion from PBMCs” value (human PBMCs; any tested concentration between 0.01 μM and 10 μM, FIG. 25) was “not found to induce”, the IFN-γ (human PBMCs; high-dose ODN 10 μM) was 0.2 pg/mL and the IL-1β (human PBMCs; high-dose ODN 10 μM) was 0.6 pg/mL. For the same substance, the IL-6 (human PBMCs; high-dose ODN 10 μM) was 11.8 fold change, the IL-10 (human PBMCs; high-dose ODN 10 μM) was 1.6 fold change and the IL-12p40 (human PBMCs; high-dose ODN 10 μM) was 0 pg/mL. It also gave an IP10 (human PBMCs; high-dose ODN 10 μM) of 8.1 fold change, a TNF-α (human PBMCs; high-dose ODN 10 μM) of 2 fold change and an IFN-γ (human PBMCs; low-dose ODN 0.1 μM) of 0.2 pg/mL. For the same substance, the IL-1β (human PBMCs; low-dose ODN 0.1 μM) was 0.2 pg/mL, the IL-6 (human PBMCs; low-dose ODN 0.1 μM) was 1.2 fold change and the IL-10 (human PBMCs; low-dose ODN 0.1 μM) was 0.9 fold change. It also gave an IL-12p40 (human PBMCs; low-dose ODN 0.1 μM) of 0 pg/mL, an IP10 (human PBMCs; low-dose ODN 0.1 μM) of 1.5 fold change and a TNF-α (human PBMCs; low-dose ODN 0.1 μM) of 1.2 fold change.
